Where “and” joins values, the source holds several entries; their conditions need not be identical. Equal values may be shown once.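 Compound exposure: 48 hours, 5 concentrations, 96-well plates. At the GI50, growth is halved. Definition used: TGI = concentration required for complete inhibition of growth.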
Assays:
Assay in all cases: NCI tumour cell line growth inhibition, 48 h
[1] = system: A498 renal
[2] = system: HL-60(TB) leukemia
[3] = system: SW-620 colon
[4] = system: HCC-2998 colon
[5] = system: SNB-75 CNS
[6] = system: UO-31 renal
[7] = system: RPMI-8226 leukemia
[8] = system: CCRF-CEM leukemia
[9] = system: PC-3 prostate
[10] = system: MDA-MB-231 breast

Compound | TGI [1] | TGI [2] | TGI [3] | TGI [4] | TGI [5] | TGI [6] | TGI [7] | TGI [8] | TGI [9] | GI50 [9] | GI50 [1] | GI50 [2] | GI50 [3] | GI50 [4] | GI50 [7] | GI50 [8] | GI50 [5] | GI50 [6] | GI50 [10] | TGI [10]
CCCCN(CCCC)CC(C(=O)Nc1ccc([N+](=O)[O-])cc1[N+](=O)[O-])/C(C)=N\NC(=O)c1ccncc1 (configuration not stated) | > 100 µM | > 100 µM | > 100 µM | > 100 µM | > 100 µM | > 100 µM | > 100 µM | > 100 µM |  |  |  |  |  |  |  |  |  |  |  | 
Nc1nc2c(ncn2C2OC(CO)C(O)C2O)c(=O)o1 (configuration not stated) | > 100 µM | > 100 µM | > 93.6 µM | > 100 µM | > 100 µM | > 100 µM | > 100 µM | > 100 µM | > 100 µM |  |  |  |  |  |  |  |  |  |  | 
Cc1[nH]c2ccccc2c1/C=C/c1c(C)[nH]c2ccccc12 | > 100 µM | > 100 µM | > 100 µM | > 100 µM | > 100 µM | > 100 µM | > 100 µM | > 100 µM |  |  |  |  |  |  |  |  |  |  |  | 
CN1C(=O)[C@@H](CC2CCCC2)N(C2CCCC2)c2nc(Nc3cc(Cl)c(O)c(Cl)c3)ncc21 | > 100 µM | 58.1 µM | > 100 µM | > 100 µM |  |  | 49 µM | 84.2 µM | > 100 µM | 14.1 µM | 35.4 µM | 10.3 µM | 28.2 µM | 29.8 µM | 10.4 µM | 18.6 µM |  |  |  | 
CN(C)C/C=C/C(=O)Nc1ccc(C(=O)Nc2cccc(Nc3ncc(Cl)c(-c4c[nH]c5ccccc45)n3)c2)cc1 | 0.119 µM |  | 11.3 µM | 0.203 µM | 0.101 µM | 0.666 µM |  | > 100 µM | 0.191 µM | 0.0315 µM | 0.0189 µM |  | 0.031 µM | 0.0154 µM |  | < 0.01 µM | 0.0316 µM | 0.199 µM | 0.0332 µM | 0.33 µM
CCN(CC)CCN1C(=O)c2c(c3c4cccc(Cl)c4n(C4OC(CO)C(OC)C(O)C4O)c3c3[nH]c4c(Cl)cccc4c23)C1=O (configuration not stated) |  |  |  |  |  |  | 0.00306 µM |  |  |  |  | 0.309 µM and 0.0366 µM | < 0.0001 µM | 0.000104 µM and < 0.0299 µM and < 0.01 µM | 0.000139 µM and < 0.0268 µM | < 0.0001 µM |  |  |  | 1.12 µM
O=C(CCl)N1CCN(c2ccccn2)CC1 | 31.4 µM | 49.6 µM | 51.6 µM | 35.8 µM | > 10 µM | 36.3 µM | > 100 µM | 69.2 µM | > 100 µM |  |  |  |  |  |  |  |  |  |  | 
CCN1C[C@@H](C)n2c(c(O)c3c(=O)n(Cc4ccc(F)c(Cl)c4)nc(C(=O)NC)c32)C1=O | 4.55 µM |  | > 100 µM | 6.08 µM | 7.12 µM | > 100 µM | 7.37 µM | > 100 µM | 32 µM | 3.27 µM | 1.43 µM |  | 3.11 µM | 2.54 µM | 2.59 µM | 3.57 µM | 2.28 µM | 2.43 µM | 2.64 µM | 7.36 µM
NC(=S)N/N=C/C(O[C@@H](/C=N/NC(N)=S)CO)n1cnc2c(N)ncnc21 (some centres not stated) | > 100 µM | > 100 µM | > 53.7 µM | > 100 µM | > 100 µM | > 100 µM | > 72.7 µM | > 100 µM |  |  |  |  |  |  |  |  |  |  |  | 
COC12OCCN(C)C1=CC(=O)C1N=NCC12 (configuration not stated) | > 100 µM | > 100 µM | > 100 µM | > 100 µM | > 100 µM | > 100 µM | > 100 µM | > 100 µM |  |  |  |  |  |  |  |  |  |  |  | 
COc1ccc(N=Nc2c(-c3ccccc3)nn(C(=O)CC(=O)Nc3ccc(OC)cc3)c2-c2ccccc2)cc1 | > 100 µM | > 100 µM | > 100 µM | > 100 µM | 37.9 µM | > 100 µM | > 100 µM | 53.1 µM |  |  |  |  |  |  |  |  |  |  |  | 
CS(=O)(=O)ON1C(=O)c2ccc(N)cc2C1=O | > 100 µM | 46.5 µM | > 100 µM | > 100 µM | > 100 µM | > 100 µM | 61.5 µM | > 76.7 µM |  |  |  |  |  |  |  |  |  |  |  | 
Cc1cc(NS(=O)(=O)c2ccc(NC(=O)c3cccc4c(Nc5ccc(S(=O)(=O)Nc6cc(C)on6)cc5)c5ccc(Cl)cc5nc34)cc2)no1 | > 100 µM | > 100 µM | > 100 µM | > 100 µM | 65.2 µM | 86.3 µM | > 100 µM | > 100 µM |  |  |  |  |  |  |  |  |  |  |  | 
O=C1CC[C@@H](S(=O)(=O)c2ccccc2)[C@H](/C=C/c2ccccc2)O1 | > 100 µM | > 100 µM | > 100 µM | > 100 µM | > 100 µM | > 100 µM | > 100 µM | > 100 µM |  |  |  |  |  |  |  |  |  |  |  | 
COc1c(CC(C)=O)c2ccccc2n1C(C)=O | > 100 µM | > 100 µM | > 100 µM | > 100 µM | > 100 µM | > 100 µM | > 100 µM | > 100 µM |  |  |  |  |  |  |  |  |  |  |  | 
CN(C)Cc1ccc(O)c(CN(C)C)n1 | > 100 µM |  | > 100 µM |  | > 100 µM | > 100 µM | > 100 µM |  | > 100 µM |  |  |  |  |  |  |  |  |  |  | > 100 µM
